Tests used:
[1] = tested on: Staphylococcus aureus; conditions: known in the art; cited from earlier work
[2] = tested on: Streptococcus Gordonii (CECT 804); assay: Proliferation and bacterial count on inoculated grade-IV titanium disks; type: cell-based
From the text: The mechanism of action of the composition of Example 1 was further investigated by studying in parallel assays the proliferation of bacterial population of Streptococcus Gordonii on grade-IV titanium plates which are either uncoated or coated with M1 (free of octenidine) or M3 (2% in weight of octenidine) or with a solution of octenidine having an equivalent amount of octenidine as the composition M3. The following experimental procedure was used.
All materials used were sterile or have been previously sterilized by autoclaving. The assays were performed inside a level 2 biosafety cabinet. Three different grade IV-Ti disks were used to perform the assay. This procedure was carried out for each of the assays: First, a suspension of Streptococcus Gordonii (CECT 804) of known concentration was prepared. For this purpose, a test tube is prepared with 10 mL of d.d. H2O to which bacteria were added until the desired concentration (Concentration=1×10^6 CFU/mL). […] 500 μL of bacterial suspension of known concentration (1×10^6 CFU/mL) was then added in wells of a sterile 24-well plate. Subsequently, the grade-IV Ti disc was immersed in the bacterial suspension for 1 minute (1 disk per well) in order to inoculate the disc. […]
Once this time was elapsed, bacteria population was counted. […]

CCCCCCCCN=c1ccn(CCCCCCCCCCn2ccc(=NCCCCCCCC)cc2)cc1 [octenidine]
minimal bactericide concentration (MBC) [1]: < 2 mg/L
minimal inhibitory concentration (MIC) [1]: < 2 mg/L
proliferation of bacteria population on coated disks ([2]; after 24 hours incubation at 37° C., FIG. 22): significant reduction of bacteria proliferation
bacterial count of bacteria adhered to the titanium surface ([2]; average of three samples per disk, 24 h at 37° C., uncoated disk 1,726 × 10^7): 483,33 CFU/mL

Reference: US20260215887A1, “COATING COMPOSITION FOR THE TREATMENT OR PREVENTION OF PERIIMPLANTITIS AND PREPARATION METHOD THEREOF” (UNIVERSITAT JAUME I, priority 2023, published 2026)
